Source: article PMC5856786, “A DHODH inhibitor increases p53 synthesis and enhances tumor cell killing by p53 degradation blockage” (Nature Communications, 2018)

Assays:
[1] = tested on: DNA damage response markers in ARN8 cells; assay: Western blotting of DNA damage response markers; format: cell-based, human
Protocol: Protein extracts were prepared in 1× LDS sample buffer (Invitrogen) with 100 mM DTT and separated and transferred using the Invitrogen western blotting system except in Supplementary Fig. 1c where the BioRad western blotting system was used. HRP-conjugated secondary antibodies were obtained from Dako (#P016102 and #P0211702) or Santa Cruz (#SC-2020). Immunofluorescence was performed by fixing cells in 4% paraformaldehyde freshly made in PBS for 10 min at 37 °C. Following fixation, cells were permeabilized in 0.15% Triton X-100 for 1–2 min at 37 °C followed by staining with the indicated antibodies. Images were taken using Olympus IX-71 microscope controlled by DeltaVision SoftWoRx. […]
Protein levels were analyzed by western blotting and relative p53 levels quantified using […]
for 1 h prior to the addition of hydroxyurea (HU) or vehicle control for a further 3 h and analyzed by western blotting. gapdh was used as loading control. d) ARN8 cells were treated […]
(Sigma, #N9162) for a further 2 h. Samples were lysed in 2 × LDS buffer (Invitrogen) and levels of P-ATM and ATM determined. α-tubulin was detected for loading control. e) ARN8 […]
of NCS for a further 2 h. Samples were lysed as in d) and levels of P-Ser15 p53 and γ-H2AX were determined. gapdh was used as loading control. f−g) ARN8 cells were treated with […]
(Ser 345) and chk1 were detected. […]

p53-null H1299 cells = assay: p53 reporter (CPRG assay) in p53-null H1299 cells transfected with RGCΔFosLacZ; format: cell-based; details: H1299, 16 h exposure
Protocol: Supplementary Figure 1. HZ compounds increase the levels of p53-induced mRNAs. a) p53-null H1299 cells were transfected with the RGCΔ FosLacZ reporter construct and levels of p53-dependent transcription were determined by CPRG assay following a 16 h exposure to HZ00. A vector expressing wild-type p53 was used as a positive control. The average of three […]
for 1 hour prior to treatment with 2 µM nutlin-3 for an additional 18 hours. Levels of p53-induced mRNAs and p53 mRNA were determined by q-RT-PCR. tbp was used as a control.
Values correspond to the average of three technical repeats with standard deviation used for error. RNA extraction and q-RT-PCR were performed as previously described - see supplementary information7. c) HCT116 p53 wild-type or p53 deficient cells were treated […]
supplementary information for cell line description8. d) ARN8 cells treated for 6 hours with HZ00 at indicated doses. Levels of p53 mRNA were determined by q-RT-PCR. […]

CDK4/CycD3 = CDK4/CycD3 (Homo sapiens, UniProt P11802); assay: biochemical; parameters: radiometric 33PanQinase protein kinase activity assay, CDK/cyclin panel, per cent remaining activity; details: read-out: HZ00 10 µM Average (% remaining activity)
CDK4/CycD3, sequence (P11802 whole entry): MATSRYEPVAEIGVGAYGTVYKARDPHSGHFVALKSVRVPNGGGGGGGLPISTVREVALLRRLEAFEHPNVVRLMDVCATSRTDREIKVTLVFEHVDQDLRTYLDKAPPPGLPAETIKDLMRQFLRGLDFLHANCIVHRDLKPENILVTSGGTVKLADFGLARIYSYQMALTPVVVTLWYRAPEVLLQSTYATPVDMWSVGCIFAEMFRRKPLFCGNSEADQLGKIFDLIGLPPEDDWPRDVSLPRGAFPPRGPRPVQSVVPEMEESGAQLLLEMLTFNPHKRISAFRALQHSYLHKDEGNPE
CDK4/CycD3, sequence (P30281 whole entry partner): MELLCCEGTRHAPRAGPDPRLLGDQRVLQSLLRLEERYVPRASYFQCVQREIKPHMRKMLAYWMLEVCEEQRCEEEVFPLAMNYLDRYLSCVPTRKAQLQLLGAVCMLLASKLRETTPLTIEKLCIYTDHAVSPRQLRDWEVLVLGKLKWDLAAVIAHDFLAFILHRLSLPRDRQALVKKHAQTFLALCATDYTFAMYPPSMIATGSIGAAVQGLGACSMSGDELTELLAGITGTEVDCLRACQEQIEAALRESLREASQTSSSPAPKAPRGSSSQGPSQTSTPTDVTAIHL
Source text: (§1) Supplementary Table 1. In vitro inhibition (% remaining activity) of cyclin-dependent
(§2) ProQinase GmbH (Freiburg, Germany) using a radiometric protein kinase assay
(§3) (33PanQinase® Activity Assay).
(§4) (1 picture or pasted object on this page, not shown here) 32 Supplementary Table 1. In vitro inhibition (% remaining activity) of cyclin-dependent kinases (CDKs).

CDK1/CycE1 = CDK1/CycE1 (Homo sapiens, UniProt P06493); assay: biochemical; parameters: radiometric 33PanQinase protein kinase activity assay, CDK/cyclin panel, per cent remaining activity; details: read-out: HZ00 10 µM Average (% remaining activity)
CDK1/CycE1, sequence (P06493 whole entry): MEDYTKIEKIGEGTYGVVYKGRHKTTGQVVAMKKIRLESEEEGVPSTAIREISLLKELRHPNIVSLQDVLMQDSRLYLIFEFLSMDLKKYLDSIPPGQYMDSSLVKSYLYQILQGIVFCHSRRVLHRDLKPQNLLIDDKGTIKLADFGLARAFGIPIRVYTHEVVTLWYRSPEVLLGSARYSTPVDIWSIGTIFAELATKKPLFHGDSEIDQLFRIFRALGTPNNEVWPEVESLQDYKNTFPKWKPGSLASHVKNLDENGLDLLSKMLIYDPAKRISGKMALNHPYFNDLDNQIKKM
CDK1/CycE1, sequence (P24864 whole entry partner): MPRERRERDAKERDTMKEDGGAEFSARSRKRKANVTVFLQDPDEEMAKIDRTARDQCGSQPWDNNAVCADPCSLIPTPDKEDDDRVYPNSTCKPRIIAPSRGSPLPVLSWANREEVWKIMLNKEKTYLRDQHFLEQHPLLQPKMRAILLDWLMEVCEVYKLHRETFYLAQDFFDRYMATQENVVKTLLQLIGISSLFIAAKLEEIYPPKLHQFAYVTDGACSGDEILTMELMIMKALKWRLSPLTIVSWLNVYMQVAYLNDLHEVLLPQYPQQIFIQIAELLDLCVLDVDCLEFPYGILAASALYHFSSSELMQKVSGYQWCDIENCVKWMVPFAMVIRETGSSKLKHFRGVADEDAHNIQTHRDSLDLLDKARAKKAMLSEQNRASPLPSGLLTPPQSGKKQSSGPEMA
Source text: as §1, §2, §3, §4

CDK1/CycB1 = CDK1/CycB1 (Homo sapiens, UniProt P06493); assay: biochemical; parameters: radiometric 33PanQinase protein kinase activity assay, CDK/cyclin panel, per cent remaining activity; details: read-out: HZ00 10 µM Average (% remaining activity)
Source text: as §1, §2, §3, §4

CDK6/CycD1 = CDK6/CycD1 (Homo sapiens, UniProt Q00534); assay: biochemical; parameters: radiometric 33PanQinase protein kinase activity assay, CDK/cyclin panel, per cent remaining activity; details: read-out: HZ00 10 µM Average (% remaining activity)
CDK6/CycD1, sequence (Q00534 whole entry): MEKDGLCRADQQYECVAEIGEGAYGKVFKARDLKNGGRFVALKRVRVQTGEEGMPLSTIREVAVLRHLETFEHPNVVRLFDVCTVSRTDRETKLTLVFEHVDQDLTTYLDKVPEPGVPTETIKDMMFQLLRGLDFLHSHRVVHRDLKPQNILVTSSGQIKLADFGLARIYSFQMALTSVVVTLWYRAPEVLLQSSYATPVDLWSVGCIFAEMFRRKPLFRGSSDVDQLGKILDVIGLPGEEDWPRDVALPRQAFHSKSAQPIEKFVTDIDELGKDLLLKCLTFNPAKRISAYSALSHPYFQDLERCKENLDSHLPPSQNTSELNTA
CDK6/CycD1, sequence (P24385 whole entry partner): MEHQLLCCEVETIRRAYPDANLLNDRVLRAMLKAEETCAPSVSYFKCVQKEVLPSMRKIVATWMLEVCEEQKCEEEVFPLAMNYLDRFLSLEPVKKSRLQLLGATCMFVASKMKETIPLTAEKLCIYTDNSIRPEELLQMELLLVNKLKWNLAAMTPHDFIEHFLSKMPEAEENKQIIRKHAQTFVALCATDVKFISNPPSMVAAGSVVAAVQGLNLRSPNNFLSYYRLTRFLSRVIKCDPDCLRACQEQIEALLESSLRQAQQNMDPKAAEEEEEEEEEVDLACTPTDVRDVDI
Source text: as §1, §2, §3, §4

CDK4/CycD1 = CDK4/CycD1 (Homo sapiens, UniProt P11802); assay: biochemical; parameters: radiometric 33PanQinase protein kinase activity assay, CDK/cyclin panel, per cent remaining activity; details: read-out: HZ00 10 µM Average (% remaining activity)
CDK4/CycD1, sequence (P11802 whole entry): as the sequence (P11802 whole entry) above
CDK4/CycD1, sequence (P24385 whole entry partner): as the sequence (P24385 whole entry partner) above
Source text: as §1, §2, §3, §4

CDK3/CycE1 = CDK3/CycE1 (Homo sapiens, UniProt Q00526); assay: biochemical; parameters: radiometric 33PanQinase protein kinase activity assay, CDK/cyclin panel, per cent remaining activity; details: read-out: HZ00 10 µM Average (% remaining activity)
CDK3/CycE1, sequence (Q00526 whole entry): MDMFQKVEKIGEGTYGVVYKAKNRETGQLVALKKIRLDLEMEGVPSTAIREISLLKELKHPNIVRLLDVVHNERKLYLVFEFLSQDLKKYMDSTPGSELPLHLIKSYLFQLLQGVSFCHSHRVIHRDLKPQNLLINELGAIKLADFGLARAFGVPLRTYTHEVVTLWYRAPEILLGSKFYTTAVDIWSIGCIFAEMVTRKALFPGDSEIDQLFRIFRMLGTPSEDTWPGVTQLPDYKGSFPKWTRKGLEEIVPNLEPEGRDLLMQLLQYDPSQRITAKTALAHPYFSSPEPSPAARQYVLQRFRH
CDK3/CycE1, sequence (P24864 whole entry partner): as the sequence (P24864 whole entry partner) above
Source text: as §1, §2, §3, §4

CDK2/CycE1 = CDK2/CycE1 (Homo sapiens, UniProt P24941); assay: biochemical; parameters: radiometric 33PanQinase protein kinase activity assay, CDK/cyclin panel, per cent remaining activity; details: read-out: HZ00 10 µM Average (% remaining activity)
Source text: as §1, §2, §3, §4

CDK5/p35NCK = target: T1, CDK5/p35NCK (Homo sapiens, UniProt Q00535); assay: biochemical; parameters: radiometric 33PanQinase protein kinase activity assay, CDK/cyclin panel, per cent remaining activity; details: read-out: HZ00 10 µM Average (% remaining activity)
T1 construct: p35
T1 sequence (Q00535 whole entry): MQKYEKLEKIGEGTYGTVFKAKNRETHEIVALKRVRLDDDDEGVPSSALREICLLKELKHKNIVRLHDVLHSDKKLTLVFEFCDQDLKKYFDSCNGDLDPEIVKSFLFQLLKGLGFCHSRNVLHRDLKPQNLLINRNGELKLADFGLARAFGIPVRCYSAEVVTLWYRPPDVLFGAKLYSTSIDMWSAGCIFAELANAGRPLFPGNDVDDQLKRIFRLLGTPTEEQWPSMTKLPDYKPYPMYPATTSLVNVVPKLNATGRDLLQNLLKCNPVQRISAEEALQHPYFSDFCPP
T1 sequence (Q15078 whole entry partner): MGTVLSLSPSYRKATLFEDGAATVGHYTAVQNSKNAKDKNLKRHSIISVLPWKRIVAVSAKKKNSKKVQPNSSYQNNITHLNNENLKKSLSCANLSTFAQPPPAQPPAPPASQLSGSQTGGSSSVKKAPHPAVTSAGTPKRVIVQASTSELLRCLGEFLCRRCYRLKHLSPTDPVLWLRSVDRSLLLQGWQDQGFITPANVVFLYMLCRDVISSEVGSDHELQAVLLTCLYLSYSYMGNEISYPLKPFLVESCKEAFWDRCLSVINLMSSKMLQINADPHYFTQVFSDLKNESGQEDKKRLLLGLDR
Source text: as §1, §2, §3, §4

CDK5/p25NCK = target: T2, CDK5/p25NCK (Homo sapiens, UniProt Q00535); assay: biochemical; parameters: radiometric 33PanQinase protein kinase activity assay, CDK/cyclin panel, per cent remaining activity; details: read-out: HZ00 10 µM Average (% remaining activity)
T2 construct: p25
T2 sequence (Q00535 whole entry): as the sequence (Q00535 whole entry) above
T2 sequence (Q15078 whole entry partner): as the sequence (Q15078 whole entry partner) above
Source text: as §1, §2, §3, §4

CDK7/CycH/MAT1 = CDK7/CycH/MAT1 (Homo sapiens, UniProt P50613); assay: biochemical; parameters: radiometric 33PanQinase protein kinase activity assay, CDK/cyclin panel, per cent remaining activity; details: read-out: HZ00 10 µM Average (% remaining activity)
CDK7/CycH/MAT1, sequence (P50613 whole entry): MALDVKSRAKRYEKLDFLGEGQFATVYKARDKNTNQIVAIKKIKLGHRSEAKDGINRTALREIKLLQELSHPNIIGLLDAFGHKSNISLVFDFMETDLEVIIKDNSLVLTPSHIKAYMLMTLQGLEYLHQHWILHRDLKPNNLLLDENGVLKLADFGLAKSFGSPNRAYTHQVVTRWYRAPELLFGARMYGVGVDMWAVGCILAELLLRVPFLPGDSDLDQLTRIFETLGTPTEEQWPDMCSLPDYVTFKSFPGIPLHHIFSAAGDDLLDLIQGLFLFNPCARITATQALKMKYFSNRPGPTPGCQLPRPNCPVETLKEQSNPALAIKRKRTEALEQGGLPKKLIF
CDK7/CycH/MAT1, sequence (P51946 whole entry partner): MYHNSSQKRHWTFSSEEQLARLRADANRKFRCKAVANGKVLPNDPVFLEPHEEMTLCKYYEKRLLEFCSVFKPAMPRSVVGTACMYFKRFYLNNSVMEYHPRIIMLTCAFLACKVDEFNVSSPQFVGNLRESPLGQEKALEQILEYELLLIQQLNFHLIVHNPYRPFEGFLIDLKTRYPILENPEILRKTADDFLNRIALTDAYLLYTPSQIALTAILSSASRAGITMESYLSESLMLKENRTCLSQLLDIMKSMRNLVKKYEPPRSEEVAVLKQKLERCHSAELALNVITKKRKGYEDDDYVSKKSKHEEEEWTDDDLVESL
CDK7/CycH/MAT1, sequence (P51948 whole entry partner): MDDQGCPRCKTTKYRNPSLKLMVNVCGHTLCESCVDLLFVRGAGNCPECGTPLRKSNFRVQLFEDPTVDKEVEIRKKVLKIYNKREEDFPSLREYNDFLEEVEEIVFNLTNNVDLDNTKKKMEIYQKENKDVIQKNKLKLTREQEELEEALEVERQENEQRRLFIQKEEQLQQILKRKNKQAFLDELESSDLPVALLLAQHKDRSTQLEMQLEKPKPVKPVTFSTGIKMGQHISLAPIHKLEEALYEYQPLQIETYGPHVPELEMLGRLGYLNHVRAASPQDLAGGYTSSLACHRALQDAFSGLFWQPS
Source text: as §1, §2, §3, §4

CDK2/CycA2 = CDK2/CycA2 (Homo sapiens, UniProt P24941); assay: biochemical; parameters: radiometric 33PanQinase protein kinase activity assay, CDK/cyclin panel, per cent remaining activity; details: read-out: HZ00 10 µM Average (% remaining activity)
Source text: as §1, §2, §3, §4

[2] = tested on: p53 and p53-induced proteins in ARN8 cells; assay: Western blotting of p53, hdm2 and p21 levels; format: cell-based, human; details: ARN8 melanoma cells
Protocol: Levels of p53, as well as downstream targets hdm2 (human mdm2) and p21 were determined. Levels of gapdh were used to monitor protein loading. e ARN8 or HNDF cells were treated with the indicated compound concentrations for 72 h and subjected to MTT assays. […] Incorporation of ^35S in the p53 immunoprecipitate was determined by autoradiography. The experiment is shown in duplicate
Protein extracts were prepared in 1× LDS sample buffer (Invitrogen) with 100 mM DTT and separated and transferred using the Invitrogen western blotting system except in Supplementary Fig. 1c where the BioRad western blotting system was used. HRP-conjugated secondary antibodies were obtained from Dako (#P016102 and #P0211702) or Santa Cruz (#SC-2020). Immunofluorescence was performed by fixing cells in 4% paraformaldehyde freshly made in PBS for 10 min at 37 °C. Following fixation, cells were permeabilized in 0.15% Triton X-100 for 1–2 min at 37 °C followed by staining with the indicated antibodies. Images were taken using Olympus IX-71 microscope controlled by DeltaVision SoftWoRx. Image stacks were deconvolved, quick-projected and saved as tiff images to be processed using Adobe Photoshop. Antibodies to specific antigens are listed in Supplementary Table 8. All original films for blots in Fig. 1 are shown in Supplementary Figs. 9–12.

In the case of `O=C(NC1CCCc2c1cnn2-c1ccccc1F)c1ccccn1` (centres unmarked) [HZ00], the “induction of DNA damage response markers” value [1] is reported as “did not observe any induction”, the “p53-reporter activity in p53-null cells” value (p53-null H1299 cells) is reported as “did not result in p53-reporter activity” and the remaining activity at 10 µM (CDK4/CycD3) is reported as 89.2%. It also gave a remaining activity at 10 µM (CDK1/CycE1) of 101%, a remaining activity at 10 µM (CDK1/CycB1) of 104% and a remaining activity at 10 µM (CDK6/CycD1) of 103%. The remaining activity at 10 µM (CDK4/CycD1) was 104%, the remaining activity at 10 µM (CDK3/CycE1) was 96.6% and the remaining activity at 10 µM (CDK2/CycE1) was 102%. The remaining activity at 10 µM (CDK5/p35NCK) was 105%, the remaining activity at 10 µM (CDK5/p25NCK) was 104% and the remaining activity at 10 µM (CDK7/CycH/MAT1) was 96.2%. The remaining activity at 10 µM (CDK2/CycA2) was 96% and the “levels of p53 and p53-induced proteins” value [2] was “increased the levels of p53 and p53-induced proteins”.
